From ChEMBL document CHEMBL6134895, “Strategic Design and Optimization of Umifenovir Analogues: Balancing Antiviral Efficacy and hERG Toxicity against SARS-CoV-2” (J Med Chem, 2025)
Calls of active or inactive are those of the source. No cut-off for these calls is given here.

Assays:
SARS-CoV-2 [1] = experiment: (§1) Antiviral activity against SARS CoV-2 Wuhan infected in African green monkey Vero E6 cells assessed as inhibition of viral replication pretreated for 15 mins followed by compound removal and induction of viral infection for 1 hr and subsequent removal of inoculum and further addition of media containing compound measured after 24 hrs by cell-based ELISA; type: functional, organism-based; conditions: for IC50: Severe acute respiratory syndrome coronavirus 2, Wuhan, Vero C1008; for inhibition: Severe acute respiratory syndrome coronavirus 2, time 24.25 hrs
[2] = biological target: Voltage-gated inwardly rectifying potassium channel KCNH2 (Homo sapiens, UniProt Q12809); experiment: Inhibition of hERG extracted from membrane (unknown origin) incubated for 4 hrs by fluorescence polarization assay; type: toxicity, cell membranes
Vero C1008 = experiment: Cytotoxicity against African green monkey Vero E6 cells assessed as cell viability at 5 uM incubated for 48 hrs by MTT assay; type: toxicity, cell-based; conditions: chlorocebus sabaeus, vero c1008, 48 h, 5 µM
SARS-CoV-2 [3] = experiment: as §1, with “virus inactivation at 10 uM” for “inhibition of viral replication”, “48” for “24”, “RT-qPCR analysis relative to control” for “cell-based ELISA”; type: functional
SARS-CoV-2 [4] = experiment: as §1, with “48” for “24”, “RT-qPCR analysis” for “cell-based ELISA”; type: functional, organism-based; conditions: Severe acute respiratory syndrome coronavirus 2, time 48.25 hrs
SARS-CoV-2 [5] = experiment: as §1, with “virus inactivation at 5 uM” for “inhibition of viral replication”, “48” for “24”, “RT-qPCR analysis relative to control” for “cell-based ELISA”; type: functional, Severe acute respiratory syndrome coronavirus 2; conditions: time 48.25 hrs
SARS-CoV-2 [6] = experiment: as §1, with “virus inactivation at 1 uM” for “inhibition of viral replication”, “48” for “24”, “RT-qPCR analysis relative to control” for “cell-based ELISA”; type: functional
[7] = Stability in mouse plasma assessed as half life at 2 uM measured up to 120 mins by LC-MS/MS analysis; type: ADME, cell-free
[8] = Stability in human plasma assessed as compound remaining at 2 uM measured after 60 mins by LC-MS/MS analysis; type: ADME, cell-free; conditions: read-out: Stability
[9] = Stability in human plasma assessed as half life at 2 uM measured up to 120 mins by LC-MS/MS analysis; type: ADME, cell-free
[10] = Stability in mouse plasma assessed as compound remaining at 2 uM measured after 60 mins by LC-MS/MS analysis; type: ADME, cell-free; conditions: read-out: Stability
[11] = Severe acute respiratory syndrome coronavirus 2, time 48.25 hrs

Chain of Voltage-gated inwardly rectifying potassium channel KCNH2 (Q12809 whole entry): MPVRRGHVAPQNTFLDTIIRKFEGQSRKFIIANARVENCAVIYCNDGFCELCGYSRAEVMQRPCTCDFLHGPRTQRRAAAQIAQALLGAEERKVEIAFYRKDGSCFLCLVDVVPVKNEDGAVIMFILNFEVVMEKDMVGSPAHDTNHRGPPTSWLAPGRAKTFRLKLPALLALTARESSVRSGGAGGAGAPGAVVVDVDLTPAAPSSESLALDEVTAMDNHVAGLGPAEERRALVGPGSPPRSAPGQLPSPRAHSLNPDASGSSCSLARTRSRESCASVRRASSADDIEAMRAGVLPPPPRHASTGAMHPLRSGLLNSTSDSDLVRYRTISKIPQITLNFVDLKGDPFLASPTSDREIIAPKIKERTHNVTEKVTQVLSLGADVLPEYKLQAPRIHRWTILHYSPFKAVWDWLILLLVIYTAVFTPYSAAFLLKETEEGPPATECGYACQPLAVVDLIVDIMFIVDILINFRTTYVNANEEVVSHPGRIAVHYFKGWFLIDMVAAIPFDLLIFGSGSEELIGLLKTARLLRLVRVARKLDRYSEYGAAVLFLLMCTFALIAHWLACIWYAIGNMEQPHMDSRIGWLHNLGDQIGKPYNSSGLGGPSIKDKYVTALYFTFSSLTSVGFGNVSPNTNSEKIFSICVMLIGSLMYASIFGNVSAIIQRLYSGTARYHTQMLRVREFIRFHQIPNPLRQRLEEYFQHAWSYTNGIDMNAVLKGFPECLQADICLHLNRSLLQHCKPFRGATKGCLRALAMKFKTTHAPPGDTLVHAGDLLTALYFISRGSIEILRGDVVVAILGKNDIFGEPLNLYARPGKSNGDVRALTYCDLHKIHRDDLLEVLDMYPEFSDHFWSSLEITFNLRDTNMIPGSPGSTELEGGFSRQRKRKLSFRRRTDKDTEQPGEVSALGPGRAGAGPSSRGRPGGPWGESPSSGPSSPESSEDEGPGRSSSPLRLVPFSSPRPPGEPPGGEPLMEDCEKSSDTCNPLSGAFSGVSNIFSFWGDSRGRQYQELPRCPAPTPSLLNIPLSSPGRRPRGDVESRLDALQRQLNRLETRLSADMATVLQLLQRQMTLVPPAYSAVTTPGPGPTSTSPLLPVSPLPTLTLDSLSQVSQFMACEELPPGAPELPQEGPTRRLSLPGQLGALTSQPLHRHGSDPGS

Row | Compound | IC50 (SARS-CoV-2 [1]) [µM] | Activity (Vero C1008) | Activity (SARS-CoV-2 [3]; [11]) | inhibition (SARS-CoV-2 [4]) | other results
1 | CC(C)N1CCN(C(=O)c2c(CSc3ccccc3)n(C)c3cc(Br)c(O)cc23)CC1 | 3.05 | Non-toxic |  |  | IC50 [2]: 1.19 µM
2 | CCOC(=O)c1c(CSc2c(C)cc(C)cc2C)n(Cc2ccc(C)cc2)c2cc(Br)c(O)c(CN(C)C)c12 | 10 | Non-toxic | Not determined; No Significant Effect Observed |  | IC50 [2]: 3.85 µM
3 | CCOC(=O)c1c(CSc2ccc(F)cc2C)n(Cc2ccc(F)cc2)c2cc(Br)c(O)cc12 | 12.7 | Non-toxic |  | Not active; No Significant Effect | Activity (SARS-CoV-2 [5]): >95%; Activity (SARS-CoV-2 [6]; [11]): Not active; No Significant Effect Observed
4 | CC(C)[N+](C)(CCOC(=O)C1c2ccccc2Oc2ccccc21)C(C)C [PROPANTHELINE] |  |  |  |  | half-life at 2 µM [7]: 52.1 min; remaining at 1 h, 2 µM [8]: 2.04%; half-life at 2 µM [9]: 21.3 min; remaining at 1 h, 2 µM [10]: 17.4%
5 | CN1CCC(NC(=O)c2c(CSc3ccc(F)cc3)n(C)c3cc(Br)c(O)cc23)CC1 | 3.8 | Non-toxic |  |  | 
6 | CCOC(=O)c1c(CSc2ccc(F)cc2)n(C)c2cc(Br)c(O)cc12 |  | Non-toxic |  |  | inhibition (SARS-CoV-2 [1]): inactive; Activity (SARS-CoV-2 [3]; time 48.25 hrs): 99.9%; Activity (SARS-CoV-2 [6]; time 48.25 hrs): <90%
7 | CCOC(=O)c1c(CSc2ccc(C)cc2C)n(Cc2ccc(-c3ccccc3)cc2)c2cc(Br)c(O)cc12 |  | Non-toxic | Not active; No Significant Effect Observed | Not active; No Significant Effect | 
8 | CCOC(=O)c1c(CSc2ccccc2)[nH]c2cc(Br)c(O)cc12 |  | Non-toxic | Not active; No Significant Effect Observed | Not active; No Significant Effect | 
9 | CCOC(=O)c1c(CSc2ccc(C)cc2C)n(Cc2ccc(F)cc2)c2cc(Br)c(O)cc12 |  | Non-toxic | Not active; No Significant Effect Observed | Not active; No Significant Effect | 
10 | CC(C)N1CCC(NC(=O)c2c(CSc3ccccc3)n(C)c3cc(Br)c(O)cc23)CC1 | 6.6 | Non-toxic |  |  | IC50 [2]: 7.09 µM
11 | CCOC(=O)c1c(CSc2ccc(F)cc2C)n(Cc2cccc3ccccc23)c2cc(Br)c(O)cc12 |  | Non-toxic | Not active; No Significant Effect Observed |  | inhibition (SARS-CoV-2 [1]): inactive
12 | CCOC(=O)c1c(CSc2c(C)cc(C)cc2C)n(Cc2ccc(F)cc2)c2cc(Br)c(O)cc12 | 1.3 | Non-toxic |  |  | Activity (SARS-CoV-2 [5]): >95%
13 | CCOC(=O)c1c(CSc2ccc(C)cc2C)n(Cc2ccc(C)cc2)c2cc(Br)c(O)cc12 | 2.1 | Non-toxic |  |  | IC50 [2]: > 30 µM; Activity (SARS-CoV-2 [5]): >99%
14 | Cc1ccc(Cn2c(CSc3c(C)cc(C)cc3C)c(C(=O)NC3CCN(C)CC3)c3cc(O)c(Br)cc32)cc1 |  | Non-toxic |  |  | 
15 | CCOC(=O)c1c(CSc2ccccc2OC)n(C)c2cc(Br)c(O)cc12 |  |  | Not active; No Significant Effect Observed | Not active; No Significant Effect | 
16 | Cn1c(CSc2ccccc2)c(C(=O)N2CCC(N3CCOCC3)CC2)c2cc(O)c(Br)cc21 | 3.1 | Non-toxic |  |  | IC50 [2]: 13 µM
17 | CCOC(=O)c1c(CSc2ccc(F)cc2)n(Cc2cccc3ccccc23)c2cc(Br)c(O)cc12 |  | Non-toxic |  |  | inhibition (SARS-CoV-2 [1]): inactive; Activity (SARS-CoV-2 [5]): >90%; Activity (SARS-CoV-2 [6]; [11]): Not active; No Significant Effect Observed
18 | CCOC(=O)c1c(CSc2ccc(F)cc2)n(C)c2cc(Br)c(O)c(CN(C)C)c12 |  | Non-toxic |  | Not active; No Significant Effect | 
19 | CCOC(=O)c1c(CSc2c(C)cc(C)cc2C)n(Cc2cccc3ccccc23)c2cc(Br)c(O)cc12 |  | Non-toxic | Not active; No Significant Effect Observed |  | inhibition (SARS-CoV-2 [1]): inactive
20 | CCOC(=O)c1c(CSc2ccccc2)n(Cc2ccc(F)cc2)c2cc(Br)c(O)cc12 | 1.1 | Non-toxic |  |  | IC50 [2]: > 30 µM; Activity (SARS-CoV-2 [5]): >99%
21 | CCOC(=O)c1c(CSc2c(C)cc(C)cc2C)n(C)c2cc(Br)c(O)c(CN(C)C)c12 |  | Non-toxic | Not determined; No Significant Effect Observed | Not active; No Significant Effect | 
22 | CCC(CC)COC(=O)[C@H](C)N[P@](=O)(OC[C@H]1O[C@@](C#N)(c2ccc3c(N)ncnn23)[C@H](O)[C@@H]1O)Oc1ccccc1 | 0.76 |  |  |  | 
23 | CCOC(=O)c1c(CSc2ccccc2)n(Cc2cccc3ccccc23)c2cc(Br)c(O)cc12 |  |  | Not active; No Significant Effect Observed |  | inhibition (SARS-CoV-2 [1]): inactive

Row | Compound | IC50 (SARS-CoV-2 [1]) [µM] | Activity (Vero C1008) | Activity (SARS-CoV-2 [3]; [11]) | inhibition (SARS-CoV-2 [4]) | other results
24 | Cn1cc(NC(=O)c2c(CSc3ccccc3)n(C)c3cc(Br)c(O)cc23)cn1 | 1.5 | Non-toxic |  |  | 
25 | CC(C)N1CCN(C(=O)c2c(CSc3ccc(F)cc3)n(C)c3cc(Br)c(O)cc23)CC1 | 1.7 | Non-toxic |  |  | 
26 | CCOC(=O)c1c(CSc2ccc(C)cc2C)n(C)c2cc(Br)c(O)c(CN(C)C)c12 | 1.5 | Non-toxic |  |  | IC50 [2]: 0.65 µM; Activity (SARS-CoV-2 [5]): >99%; Activity (SARS-CoV-2 [6]; time 48.25 hrs): >99%
27 | CCOC(=O)c1c(CSc2ccccc2C(F)(F)F)n(C)c2cc(Br)c(O)c(CN(C)C)c12 |  |  | Not active; No Significant Effect Observed | Not active; No Significant Effect | 
28 | Cn1c(CSc2ccc(F)cc2)c(C(=O)NC(C)(C)C)c2cc(O)c(Br)cc21 |  |  |  |  | inhibition (SARS-CoV-2 [1]): inactive
29 | CCOC(=O)c1c(CSc2ccccc2OC(F)(F)F)n(C)c2cc(Br)c(O)c(CN(C)C)c12 |  |  | Not active; No Significant Effect Observed | Not active; No Significant Effect | 
30 | CCOC(=O)c1c(CSc2ccccc2C(F)(F)F)n(C)c2cc(Br)c(O)cc12 |  |  | Not active; No Significant Effect Observed | Not active; No Significant Effect | 
31 | CCOC(=O)c1c(CSc2ccc(C)cc2C)n(Cc2ccc(C(C)(C)C)cc2)c2cc(Br)c(O)cc12 |  | Non-toxic | Not active; No Significant Effect Observed | Not active; No Significant Effect | 
32 | CCOC(=O)c1c(CSc2ccc(F)cc2)n(Cc2ccc(C)cc2)c2cc(Br)c(O)cc12 |  | Non-toxic | Not active; No Significant Effect Observed | Not active; No Significant Effect | 
33 | CCOC(=O)c1c(CSc2ccc(C)cc2C)n(Cc2ccc(Cl)cc2)c2cc(Br)c(O)cc12 |  |  | Not active; No Significant Effect Observed | Not active; No Significant Effect | 
34 | CCOC(=O)c1c(CSc2ccccc2)n(C)c2cc(Br)c(O)cc12 | 8.4 | Non-toxic |  |  | Activity (SARS-CoV-2 [6]; time 48.25 hrs): <90%
35 | CCOC(=O)c1c(CSc2ccc(F)cc2F)n(C)c2cc(Br)c(O)cc12 |  |  | Not active; No Significant Effect Observed | inactive | inhibition (SARS-CoV-2 [1]): inactive
36 | CCOC(=O)c1c(CSc2ccccc2F)n(C)c2cc(Br)c(O)cc12 |  |  |  | Not active; No Significant Effect | inhibition (SARS-CoV-2 [1]): inactive; Activity (SARS-CoV-2 [6]; time 48.25 hrs): <90%
37 | CC(C)N1CCC(NC(=O)c2c(CSc3ccc(F)cc3)n(C)c3cc(Br)c(O)cc23)CC1 |  |  |  |  | inhibition (SARS-CoV-2 [1]): inactive
38 | CCOC(=O)c1c(CSc2ccc(F)cc2C)n(Cc2ccc(C)cc2)c2cc(Br)c(O)cc12 | 10 | Non-toxic |  |  | Activity (SARS-CoV-2 [5]): >50%; Activity (SARS-CoV-2 [6]; [11]): Not active; No Significant Effect Observed
39 | CCOC(=O)c1c(CSc2c(C)cc(C)cc2C)n(C)c2cc(Br)c(O)cc12 | 8.75 | Non-toxic | Not determined; No Significant Effect Observed |  | 
40 | CCOC(=O)c1c(CSc2ccc(C)cc2C)n(Cc2ccc(C#N)cc2)c2cc(Br)c(O)cc12 |  | Non-toxic | Not active; No Significant Effect Observed | Not active; No Significant Effect | 
41 | Cn1c(CSc2ccc(F)cc2F)c(C(=O)NC(C)(C)C)c2cc(O)c(Br)cc21 | 4.6 | Non-toxic |  |  | 
42 | CCOC(=O)c1c(CSc2ccccc2OC)n(C)c2cc(Br)c(O)c(CN(C)C)c12 |  |  | Not active; No Significant Effect Observed | Not active; No Significant Effect | 
43 | CCOC(=O)c1c(CSc2ccccc2OC(F)(F)F)n(C)c2cc(Br)c(O)cc12 |  |  | Not active; No Significant Effect Observed | Not active; No Significant Effect | 
44 | CCOC(=O)c1c(CSc2ccc(F)cc2)n(Cc2ccc(F)cc2)c2cc(Br)c(O)cc12 |  | Non-toxic |  | Not active; No Significant Effect | Activity (SARS-CoV-2 [5]): >95%
45 | Cn1c(CSc2ccc(F)cc2)c(C(=O)Nc2cc[nH]n2)c2cc(O)c(Br)cc21 | 2.3 | Non-toxic |  |  | IC50 [2]: > 30 µM
